Source: patent US20250127907A1, “PARP INHIBITORS” (Stablix, Inc., priority 2023, published 2025)
Like-named read-outs stand apart in the source and are kept apart here.

Columns and labels:
Type in all cases: cell-based
[1] = tested on: Poly/Mono-ADP Ribose in U2OS cells; assay: PAR in cell western assay (parylation) in U2OS cells; settings: read-out: Parylation (U2OS)
Experimental: U2OS cells are seeded at 2667 cells per well in 24 ul medium into poly-D lysine-coated 384 well plate and incubated in the TC incubator for O/N
The next day, test comps are diluted in a source plate and 6 μL of the diluted comp is added to the cell plate; mixed well and incubated for 6 hrs. DNA damage is induced with 2 mM H2O2 for 10 min. After discarding the medium, cells are fixed in ice cold Methanol at for 20 min at −20C. After a wash step at room temperature, cells are permeabilized with 0.05% NP-40 in PBS for 10 min, followed by wash steps. Cells are blocked with 1% BSA, at room temperature for 1 hr. Cells are stained with anti mono/polyADP ribose antibody (E6F6A, Cell signaling, 1:5000) in 1×PBS/1% BSA/0.05% Tween o/n at 4C.
Next Day, cells are washed and incubated with anti-Rabbit 800CV (Licor antibody, 1:500) and CellTag 700 (Licor, 1:800) in 1×PBS/1% BSA/0.05% Tween for 1 h. After washing, plates are scanned using LICOR and are quantified.
Parylation inhibition is reported as % control inhibition.
(§1) The letter codes for the PARP1-enzyme assay include: A (<1 nM), B (>1-10 nM), C (>10-100 nM), D (>100-1000 nM), E (>1000 nM), and “-” is not tested. The letter codes for the PARP trapping assay, and parylation assay include: A (<10 nM), B (>10-100 nM), C (>100-1000 nM), […], E (>10000 nM), and “-” is not tested.

A2780 cells = assay: Cell proliferation assay (A2780); settings: 7 days
Experimental: (§2) Cells are counted, diluted to desired density and 40 μL of cell suspension is added into each 384-well tissue-culture treated plates. Plates are incubated in Tissue Culture incubator at 37° C./5% C02 overnight.
(§3) Next day, 40 nl test compounds that are prepared from source plates are transferred to the seeded cells from overnight. Plates are incubated at 37° C./5% C02 for a total of 7 days. After 7-day incubation, plates are equilibrated to room temperature and 30 ul of Cell Counting-Lite is added to each well for a 30 min incubation followed by reading on EnVision.
(§4) The letter codes for the cell proliferation assay in A2780, HCC1806, and MDA-MB-436 cells include: A (<10 nM), B (>10-100 nM), C (>100-1000 nM), D (>1000-10000 nM), E (>10000 nM), and “-” is not tested.

HCC1806 cells = assay: Cell proliferation assay (HCC1806); settings: 7 days
Experimental: as §2, §3, §4

MDA-MB-436 cells = assay: Cell proliferation assay (MDA-MB-436); settings: 7 days
Experimental: as §2, §3, §4

PARP1 = PARP1 (Homo sapiens, UniProt P09874); assay: PARP trapping assay in U2OS cells; set-up: endogenous in cells; host or cells: U2OS; settings: U2OS cells, MMS, 4 hrs; read-out: PARP Trapping (U2OS)
PARP1, sequence (P09874 whole entry): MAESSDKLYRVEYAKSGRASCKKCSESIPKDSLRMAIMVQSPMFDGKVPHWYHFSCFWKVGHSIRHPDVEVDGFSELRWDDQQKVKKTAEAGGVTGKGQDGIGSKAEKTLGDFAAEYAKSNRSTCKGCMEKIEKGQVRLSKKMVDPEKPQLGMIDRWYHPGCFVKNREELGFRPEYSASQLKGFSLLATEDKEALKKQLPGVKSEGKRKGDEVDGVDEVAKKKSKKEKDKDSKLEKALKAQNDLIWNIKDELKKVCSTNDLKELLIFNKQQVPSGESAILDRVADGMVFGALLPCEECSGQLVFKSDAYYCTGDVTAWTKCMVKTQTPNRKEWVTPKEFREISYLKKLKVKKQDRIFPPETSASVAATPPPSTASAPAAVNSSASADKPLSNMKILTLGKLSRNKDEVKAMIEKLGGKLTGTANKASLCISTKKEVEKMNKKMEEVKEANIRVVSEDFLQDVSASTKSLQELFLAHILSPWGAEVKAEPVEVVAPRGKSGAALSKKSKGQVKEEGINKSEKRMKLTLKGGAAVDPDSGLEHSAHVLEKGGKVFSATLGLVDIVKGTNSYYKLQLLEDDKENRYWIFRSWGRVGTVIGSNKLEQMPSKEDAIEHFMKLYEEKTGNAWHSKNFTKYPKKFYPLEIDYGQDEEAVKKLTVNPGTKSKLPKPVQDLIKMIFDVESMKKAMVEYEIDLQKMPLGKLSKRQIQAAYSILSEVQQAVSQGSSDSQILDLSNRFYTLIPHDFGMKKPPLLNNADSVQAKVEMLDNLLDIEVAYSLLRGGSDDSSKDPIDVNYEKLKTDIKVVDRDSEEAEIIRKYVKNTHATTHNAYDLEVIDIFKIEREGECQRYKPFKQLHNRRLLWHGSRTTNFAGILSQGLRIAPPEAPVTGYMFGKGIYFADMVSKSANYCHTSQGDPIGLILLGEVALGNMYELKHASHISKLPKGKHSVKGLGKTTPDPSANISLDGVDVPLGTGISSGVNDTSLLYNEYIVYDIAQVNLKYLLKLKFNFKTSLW
Experimental: U2OS cells are seeded at 15,000 cells/well in 90 ul medium and incubated in the TC incubator for overnight.
Next day, test compounds are prepared in a source plate along with addition of DNA damage reagent MMS simultaneously and 10 ul of the diluted mixture is added to the cell plate and incubated for 4 hrs under T/C conditions.
After 4 hrs, following aspiration and washing, add 100 ul of cold cytoskeleton removal buffer (0.5% Triton X-100) and incubated for 10 min. At the end of incubation, slowly the buffer is removed, and cells are fixed with ice cold MeOH for 15 min at −20C. Followed by wash steps, cells are blocked with 1×PBS/3% BSA/0.05% Tween for 1 h at room temperature.
Cells are stained with anti PARP1 antibody (abeam ab227244, 1:1000), in 1×PBS/1% BSA overnight at 4C.
Wash and add DAPI, scan cells in Celigo.
Data Analysis: DAPI staining is used to segment nuclei and AF488 fluorescence intensity per nucleus is measured.
as §1

[2] = Homo sapiens, U2OS cells, 6 hrs, 2 mM H2O2

Row | SMILES | IC50 ([1]; U2OS cells, 6 hrs, 2 mM H2O2) [nM] | IC50 (A2780 cells) [nM] | IC50 (HCC1806 cells) [nM] | IC50 (MDA-MB-436 cells) [nM] | IC50 (PARP1) [nM] | IC50 [1, 2] [nM] | IC50 (HCC1806 cells; Homo sapiens, 168 h) [nM] | IC50 (MDA-MB-436 cells; Homo sapiens, 168 h) [nM] | IC50 (A2780 cells; Homo sapiens, 168 h) [nM] | IC50 ([1]; Homo sapiens, U2OS, 6 h) [nM]
1 | CC(C)(C)OC(=O)N[C@@H](C(=O)NC12CCC(CN3CCC(C(=O)N4CCN(C(=O)c5cc(Cc6n[nH]c(=O)c7ccccc67)ccc5F)CC4)CC3)(CC1)OC2)C1CCCCC1 [Compound I-993] | 10 to 100 | 10 to 100 | 10 to 100 | < 10 | 10 to 100 | – | – | – | – | –
2 | CC1(C(=O)N2CCCC(c3cccc(C(=O)N[C@@H](C(=O)N4CCC(OC5CCN(CC(=O)N6CCN(C(=O)c7cc(Cc8n[nH]c(=O)c9ccccc89)ccc7F)CC6)CC5)CC4)C4CCCCC4)c3F)C2)CC1 (stereo partly shown) [Compound I-660] | – | – | – | – | 10 to 100 | 100 to 1000 | 10 to 100 | < 10 | – | –
3 | CCc1cccc(-c2cnc(C(=O)NCCOCCNCC(=O)N3CCN(C(=O)c4cc(Cc5n[nH]c(=O)c6ccccc56)ccc4F)CC3)c(C)c2)c1 [Compound I-489] | – | – | – | – | 100 to 1000 | 10 to 100 | 100 to 1000 | < 10 | 10 to 100 | –
4 | CC(C)(C)OC(=O)Nc1cc(-c2cccc(C3COC3)c2)cnc1C(=O)NCCOCCNCC(=O)N1CCN(C(=O)c2cc(Cc3n[nH]c(=O)c4ccccc34)ccc2F)CC1 [Compound I-803] | – | – | – | – | 100 to 1000 | 10 to 100 | 100 to 1000 | < 10 | 10 to 100 | –
5 | CC(C)(C)OC(=O)N[C@@H](C(=O)N1C[C@H]2CC[C@@H](C1)[C@H]2OC1CCN(CC(=O)N2CCN(C(=O)c3cc(Cc4n[nH]c(=O)c5ccccc45)ccc3F)CC2)CC1)C1CCCCC1 [Compound I-990] | – | – | – | – | 10 to 100 | 10 to 100 | 10 to 100 | < 10 | 10 to 100 | –
6 | CCc1cccc(-c2cnc(C(=O)NC34CCC(CN5CCN(CC(=O)N6CCN(C(=O)c7cc(Cc8n[nH]c(=O)c9ccccc89)ccc7F)CC6)CC5)(CC3)OC4)c(N)c2)c1 [Compound I-470] | – | – | – | – | 10 to 100 | 100 to 1000 | 10 to 100 | < 10 | 10 to 100 | –
7 | O=C(N[C@@H](C(=O)N1CCC(OC2CCN(CC(=O)N3CCN(C(=O)c4cc(Cc5n[nH]c(=O)c6ccccc56)ccc4F)CC3)CC2)CC1)C1CCCCC1)c1cccc(C2CCCN(C(=O)C34CC(C3)C4)C2)c1F (stereo partly shown) [Compound I-637] | – | – | – | – | 10 to 100 | 100 to 1000 | 10 to 100 | 100 to 1000 | – | –
8 | CC(C)(C)C(=O)N1CCC[C@@](F)(c2cccc(C(=O)N[C@@H](C(=O)N3CCC(OC4CCN(CC(=O)N5CCN(C(=O)c6cc(Cc7n[nH]c(=O)c8ccccc78)ccc6F)CC5)CC4)CC3)C3CCCCC3)c2F)C1 [Compound I-994] | – | – | – | – | – | 100 to 1000 | 10 to 100 | < 10 | 10 to 100 | –
9 | CC1(C)CC(c2ccc(C(=O)N[C@@H](C(=O)N3CCC(OC4CCN(CC(=O)N5CCN(C(=O)c6cc(Cc7n[nH]c(=O)c8ccccc78)ccc6F)CC5)CC4)CC3)C3CCCCC3)c(F)c2)CCN1C(=O)C1CC1 (stereo partly shown) [Compound I-743] | – | – | – | – | 10 to 100 | 10 to 100 | 10 to 100 | < 10 | – | –
10 | O=C(CN1CCC(OC2CCN(C(=O)c3c(F)cc(-c4ccccc4)cc3F)CC2)CC1)N1CCN(C(=O)c2cc(Cc3n[nH]c(=O)c4ccccc34)ccc2F)CC1 [Compound I-634] | – | – | – | – | 10 to 100 | < 10 | 10 to 100 | < 10 | – | –
11 | O=C(N[C@@H](C(=O)N1CCC(OC2CCN(CC(=O)N3CCN(C(=O)c4cc(Cc5n[nH]c(=O)c6ccccc56)ccc4F)CC3)CC2)CC1)C1CCCCC1)c1ccc(N2CCN(C(=O)C3CC3)CC2)cc1F [Compound I-745] | – | – | – | – | 10 to 100 | 10 to 100 | 10 to 100 | < 10 | – | –
12 | CC(C)(C)C(=O)N1CCCC(c2cccc(C(=O)N[C@@H](C(=O)N3CCC(OC4CCN(CC(=O)N5CCN(C(=O)c6cc(Cc7n[nH]c(=O)c8ccccc78)ccc6F)CC5)CC4)CC3)C3CCCCC3)c2F)C1 (stereo partly shown) [Compound I-661] | – | – | – | – | 10 to 100 | 100 to 1000 | 10 to 100 | < 10 | – | –
13 | O=C(c1cc(Cc2n[nH]c(=O)c3ccccc23)ccc1F)N1CCN(C(=O)C2CC2)CC1 [Olaparib, reference compound] | – | – | – | – | – | – | 1000 to 10000 | 10 to 100 | 1000 to 10000 | < 10
14 | O=C(CN1CCN(C[C@@H]2C[C@H]3CC[C@@H]2CN3C(=O)c2c(F)cc(-c3ccccc3)cc2F)CC1)N1CCN(C(=O)c2cc(Cc3n[nH]c(=O)c4ccccc34)ccc2F)CC1 [Compound I-774] | – | – | – | – | – | 10 to 100 | 10 to 100 | < 10 | 10 to 100 | –
15 | CC(C)(C)C(=O)N1CCC[C@H](c2cccc(C(=O)N[C@@H](C(=O)N3CCC(OC4CCN(CC(=O)N5CCN(C(=O)c6cc(Cc7n[nH]c(=O)c8ccccc78)ccc6F)CC5)CC4)CC3)C3CCCCC3)c2F)C1 [Compound I-910] | – | – | – | – | – | 100 to 1000 | 10 to 100 | < 10 | 10 to 100 | –
16 | O=C(CN1CCC(OC2CCN(C(=O)c3ncc(-c4ccccc4)cc3F)CC2)CC1)N1CCN(C(=O)c2cc(Cc3n[nH]c(=O)c4ccccc34)ccc2F)CC1 [Compound I-709] | – | – | – | – | 10 to 100 | < 10 | 10 to 100 | < 10 | – | –
17 | O=C(CN1CCN(C[C@@H]2C[C@@H]3CC[C@H]2CN3C(=O)c2c(F)cc(-c3ccccc3)cc2F)CC1)N1CCN(C(=O)c2cc(Cc3n[nH]c(=O)c4ccccc34)ccc2F)CC1 [Compound I-777] | – | – | – | – | – | 10 to 100 | 10 to 100 | < 10 | 10 to 100 | –
18 | O=C(N[C@@H](C(=O)N1CCC(CC(=O)N2CCN(C(=O)c3cc(Cc4n[nH]c(=O)c5ccccc45)ccc3F)CC2)CC1)C1CCCCC1)c1cccc(C2CCCN(C(=O)C3CC3)C2)c1F (stereo partly shown) [Compound I-715] | – | – | – | – | 10 to 100 | 10 to 100 | 10 to 100 | < 10 | – | –
19 | O=C(CN1CCC(OC2CCN(C(=O)c3c(F)cc(-c4ccncc4)cc3F)CC2)CC1)N1CCN(C(=O)c2cc(Cc3n[nH]c(=O)c4ccccc34)ccc2F)CC1 [Compound I-727] | – | – | – | – | < 10 | < 10 | 10 to 100 | < 10 | – | –
20 | C[C@@H]1CN(CC2CCN(CC(=O)N3CCN(C(=O)c4cc(Cc5n[nH]c(=O)c6ccccc56)ccc4F)CC3)CC2)CCN1C(=O)[C@H](NC(=O)c1cccc([C@@H]2CCCN(C(=O)C(C)(C)C)C2)c1)C1CCCCC1 [Compound I-973] | – | – | – | – | – | 100 to 1000 | 100 to 1000 | 10 to 100 | 100 to 1000 | –
